According to patent US9259470B2, “Serine/threonine kinase inhibitors” (Array BioPharma Inc., priority 2012, dated 2016):
pIC50: −log10 of the molar value.

Test system: PMA-stimulated P90RSK(Ser380) phosphorylation in HepG2 cells
Experiment: Cellular P90RSK(Ser380) Phosphorylation Assay (Biological Example 2)
Format: cell-based
Settings: read-out: Biological Example 2 IC50, 1.5 hours compound incubation, PMA 100 ng/mL 30 minutes, normalized to GAPDH, single assay or mean of multiple assays
Protocol: Inhibition of PMA-stimulated P90RSK(Ser380) phosphorylation was determined by the following in vitro cellular mechanistic assay, which comprises incubating cells with a compound for 1.5 hours and quantifying fluorescent pP90RSK(Ser380) signal on fixed cells and normalizing to GAPDH signal.
HepG2 cells were obtained from ATCC and grown in DMEM supplemented with 10% fetal bovine serum. Cells were plated in 96-well plates at 35,000 cells/well and allowed to attach overnight at 37° C./5% CO2. Diluted compounds were then added at a final concentration of 0.5% DMSO. After 1.5 hours compound incubation, cells were stimulated with the addition of phorbol 12-myristate 13-acetate (“PMA”) at a final concentration of 100 ng/mL; the PMA stimulation was a 30-minute incubation at 37° C./5% CO2. After the 30-minute PMA stimulation, cells were washed with phosphate buffered saline (“PBS”) and fixed in 3.7% formaldehyde in PBS at room temperature for 15-20 minutes. This was followed by another wash in PBS and then permeabilization in 100% MeOH at room temperature for 10-15 minutes. Following the permeabilization incubation, cells were washed in PBS/0.05% Tween-20, followed by a block in Odyssey blocking buffer (LI-COR Biosciences) for at least 1 hour. […] Cells were then washed and analyzed for fluorescence at both wavelengths using the Odyssey Infrared Imaging System (LI-COR Biosciences). […]

Cc1cc(Nc2nccc(-c3ccn([C@H](CO)c4ccc(Cl)c(F)c4)c(=O)c3)n2)n(C)n1 [Example 167, (S)-1-(1-(4-chloro-3-fluorophenyl)-2-hydroxyethyl)-4-(2-((1,3-dimethyl-1H-pyrazol-5-yl)amino)pyrimidin-4-yl)pyridin-2(1H)-one]
pIC50: 7.00
